The text below walks through data of ChEMBL document CHEMBL1177796, “Efficient synthesis of galactosylceramide analogues for iNKT cell stimulation” (Bioorg Med Chem Lett, 2010).

This assay concerns iNKT. In words: Stimulation of human iNKT cell proliferation. It counts as functional, cell-based.

Activity calls are given as the source filed them. The calls are words filed in the database; no cut-off is given here.

`CCCCCCCCCCCCCCCCCCCCCCCCCC(=O)N[C@@H](/C=N/O[C@@H]1O[C@H](CO)[C@H](O)[C@H](O)[C@H]1O)[C@H](O)[C@H](O)CCCCCCCCCCCCCC`: the result was Active.

For the molecule `CCCCCCCCCCCCCCCCCCCCCCCCCC(=O)N[C@@H](/C=N/O[C@H]1O[C@H](CO)[C@H](O)[C@H](O)[C@H]1O)[C@H](O)[C@H](O)CCCCCCCCCCCCCC`, the outcome was Active.
